Measurements published in publication PMC6318015 (Cancer research, 2018).

Biological target: BRD4 (Homo sapiens, UniProt O60885)
Experiment: PROTAC-induced BRD4 degradation in HCT116 cells, immunoblot, […] h
Format: cell-based

Compound `Cc1ncsc1-c1ccc(CNC(=O)[C@@H]2C[C@@H](O)CN2C(=O)[C@@H](NC(=O)COCCCCOCCCOc2ccc(NC(=O)C[C@@H]3N=C(c4ccc(Cl)cc4)c4c(sc(C)c4C)-n4c(C)nnc43)cc2)C(C)(C)C)cc1` [A743] has a DC50 of 0.0231 µM.
